Data published in PubChem BioAssay AID1919004 (Molecular Pharmacology Branch, DTP, NCI, 2023).

System: 883617-216-R-J1-PDC complex spheroids, growth, % test/control
Experiment: Anticancer human tumor 883617-216-R-J1-PDC patient-derived bladder carcinoma cell line growth inhibition [AhR]
Details: for IC50: curve of first compound; for viability, T/C: stronger effect = lower value
Description: Multicellular complex tumor spheroid response to aryl hydrocarbon receptor antagonists in combination with a variety of drugs and investigational agents in selected tumor cell lines
The current study was undertaken to assess response to aryl hydrocarbon receptor antagonists in combination with standard-of-care drugs and investigational agents in solid tumor complex spheroid models. Complex spheroids include a stromal component modeled by human endothelial cells (HUVEC) and fibroblasts modeled by human mesenchymal stem cells (MSCs). The concentration ranges selected for each drug and investigational agent were based upon clinically achievable concentrations if the clinical Cmax of the agent was known.
Compounds. The drugs and investigational agents: BAY 2416964 (NSC825713), GNF351 (NSC835774), CH-223191 (NSC835775), CPI-455 (NSC825282), aza-TdCyd (NSC777586), decitabine (NSC127716), belinostat (NSC758774), entinostat (NSC756642), pevonedistat (NSC761192), tazemetostat (NSC777109), talazoparib (NSC765396), olaparib (NSC753686), selinexor (NSC780203), nedisertib (M3814, NSC802822), bortezomib (NSC756655), venetoclax (NSC766270), doxorubicin (NSC123127), elimusertib (BAY189344, NSC800525), ceralasertib (AZD6738, NSC777638), TAK-243 (NSC785004), alisertib (NSC759677), etoposide (NSC141540), topotecan (NSC609699), eribulin (NSC707389), gemcitabine (NSC613327), carboplatin (NSC241240), cisplatin (NSC119875), and SN-38 (NSC673596) were obtained from the National Cancer Institute (NCI) Developmental Therapeutics Program Chemical Repository (32). The FDA-approved anticancer drug set is available from the Developmental Therapeutics Program at https://dtp.cancer.gov/organization/dscb/obtaining/available plates.htm. […] The stock solutions were prepared in dimethyl sulfoxide (DMSO, Sigma-Aldrich, St. Louis, MO, cat. D2650), except for the platinum compounds which were prepared in saline (Quality Biological, Gaithersburg, MD, cat. 114-055-101), at 800-fold the tested concentration and stored at -70 degrees C prior to their use. All drugs and investigational agents were tested over a range starting from a high concentration at or near the clinical Cmax and decreasing in half-log increments. If the clinical Cmax for an agent had not been determined, the highest concentration tested was 10 microM (Table 1).
Cell Culture. All cells were maintained in an incubator at 37 degrees C and 5% CO2 with 95% humidity. The PDC lines were cultured according to standard operating procedures established by the NCI PDMR (https://pdmr.cancer.gov). Briefly, all PDCs were thawed and cultured in Matrigel-coated flasks prepared with a working solution of 1X Ham's F-12 nutrient mix, without supplementation (Invitrogen, Waltham, MA, cat. 11765054), 100 U/mL penicillin-streptomycin (Invitrogen, cat. 15140122), and 2.5% Matrigel (Corning Inc., Corning, NY, cat. 354248) for the first three passages. All PDCs were cultured in complete DMEM/F-12 media containing advanced DMEM/F-12 (Invitrogen, cat. 12634028), 4.9% defined fetal bovine serum, heat inactivated (HyClone Laboratories Inc., Logan, UT, cat. SH30070.03HI), 389 ng/mL hydrocortisone (Sigma-Aldrich, cat. H4001), 9.7 ng/mL human EGF recombinant protein (Invitrogen, cat. PHG0313), 23.4 microg/mL adenine (Sigma-Aldrich, cat. A2786), 97.3 U/mL penicillin-streptomycin (Invitrogen, cat. 15140122), 1.9 mM L-glutamine (Invitrogen, cat. 25030081), and 9.7 microM Y-27632 dihydrochloride (Tocris Bioscience, Bristol, United Kingdom, cat. 1254). The PDCs were cultured in complete DMEM/F12 media without 10 microM Y-27632 dihydrochloride for at least two passages prior to the screen. The established cell lines NCI-H1341 and […] were cultured in DMEM/F-12, HEPES (Invitrogen, cat. 11330032), 5% defined fetal bovine serum (HyClone Laboratories Inc., cat. SH30070.03), ITS premix universal culture supplement [insulin (5 microg/mL), transferrin (5 microg/mL), and selenious acid (5 ng/mL)] […]

[1] = second compound 0.1 µM, first compound 0.0316 µM
[2] = second compound 0.1 µM, first compound 0.1 µM
[3] = second compound 0.1 µM, first compound 0.316 µM
[4] = second compound 0.1 µM, first compound 1 µM
[5] = second compound 0.1 µM, first compound 3.16 µM
[6] = second compound 0.1 µM, first compound 10 µM
[7] = second compound 0.316 µM, first compound 0.0316 µM
[8] = second compound 0.316 µM, first compound 0.1 µM
[9] = second compound 0.316 µM, first compound 0.316 µM
[10] = second compound 0.316 µM, first compound 1 µM
[11] = second compound 0.316 µM, first compound 3.16 µM
[12] = second compound 0.316 µM, first compound 10 µM
[13] = second compound 1 µM, first compound 0.0316 µM
[14] = second compound 1 µM, first compound 0.1 µM
[15] = second compound 1 µM, first compound 0.316 µM
[16] = second compound 1 µM, first compound 1 µM
[17] = second compound 1 µM, first compound 3.16 µM
[18] = second compound 1 µM, first compound 10 µM
[19] = second compound 3.16 µM, first compound 0.0316 µM
[20] = second compound 3.16 µM, first compound 0.1 µM
[21] = second compound 3.16 µM, first compound 0.316 µM
[22] = second compound 3.16 µM, first compound 1 µM
[23] = second compound 3.16 µM, first compound 3.16 µM
[24] = second compound 3.16 µM, first compound 10 µM
[25] = second compound 10 µM, first compound 0.0316 µM
[26] = second compound 10 µM, first compound 0.1 µM
[27] = second compound 10 µM, first compound 0.316 µM
[28] = second compound 10 µM, first compound 1 µM
[29] = second compound 10 µM, first compound 3.16 µM
[30] = second compound 10 µM, first compound 10 µM
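Also: exposure lasted 7 days after dosing on day 3 of spheroid growth.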

Structure (SMILES)	IC50 (second compound 0.1 µM) [µM]	IC50 (second compound 0.316 µM) [µM]	IC50 (second compound 1 µM) [µM]	IC50 (second compound 3.16 µM) [µM]	IC50 (second compound 10 µM) [µM]	viability, T/C [1] [%]	viability, T/C [2] [%]	viability, T/C [3] [%]	viability, T/C [4] [%]	viability, T/C [5] [%]	viability, T/C [6] [%]	viability, T/C [7] [%]	viability, T/C [8] [%]	viability, T/C [9] [%]	viability, T/C [10] [%]	viability, T/C [11] [%]	viability, T/C [12] [%]	viability, T/C [13] [%]	viability, T/C [14] [%]	viability, T/C [15] [%]	also measured
CC(C)c1c(-c2ccccc2)nc2c(C#N)c[nH]n2c1=O + CC(CO)NC(=O)c1cc(-c2ccc(Cl)cc2)nn(-c2cnn(C)c2)c1=O	> 10	> 10	> 10	> 10	> 10	77.3	71.2	66.1	70.4	84.5	96	94.8	85.2	65.7	74	91.4	75.6	59.7	97.8	103	viability, T/C [16]: 92.6%; viability, T/C [17]: 87.1%; viability, T/C [18]: 78.3%; viability, T/C [19]: 95.2%; viability, T/C [20]: 92.5%; viability, T/C [21]: 75.2%; viability, T/C [22]: 79.3%; viability, T/C [23]: 51%; viability, T/C [24]: 57.7%; viability, T/C [25]: 79.4%; viability, T/C [26]: 87.1%; viability, T/C [27]: 106%; viability, T/C [28]: 57.8%; viability, T/C [29]: 64%; viability, T/C [30]: 62.5%
CC1COCCN1c1cc(C2(S(C)(=N)=O)CC2)nc(-c2ccnc3[nH]ccc23)n1 (stereo not given) + Cc1cncc(-c2nc(NCCc3c[nH]c4ccccc34)c3ncn(C(C)C)c3n2)c1	> 10	> 10	> 10	> 10	1.19	88.1	90.5	84.3	84.8	78.3	58.2	92.4	95.6	92.3	82.1	69.3	54.3	95.8	100	100	viability, T/C [16]: 94.9%; viability, T/C [17]: 81.7%; viability, T/C [18]: 62.9%; viability, T/C [19]: 103%; viability, T/C [20]: 113%; viability, T/C [21]: 100%; viability, T/C [22]: 94.2%; viability, T/C [23]: 85%; viability, T/C [24]: 54.8%; viability, T/C [25]: 57%; viability, T/C [26]: 50.1%; viability, T/C [27]: 59.6%; viability, T/C [28]: 50.6%; viability, T/C [29]: 42.7%; viability, T/C [30]: 29.8%
